Results reported in patent US7915292B2, “Antibacterial quinoline derivatives” (Janssen Pharmaceutica NV, priority 2005, dated 2011).
Values after ≈ are worked out from the molar mass of the structure shown. Structures can show the parent of a compound that is named as a salt.

Experiments:
M. Smegmatis ATCC607 = assay: In-vitro anti-bacterial activity against strain M. smegmatis ATCC607 (Alamar Blue growth inhibition); assay type: cell-based; conditions: 48 hours incubation; for IC50: Mycolicibacterium smegmatis, read-out: M. smegmatis pIC50 (converted)
Description: Serial five-fold dilutions (45 μl in 180 μl) were made directly in the microtiter plates from column 2 to 11 using a customised robot system (Zymark Corp., Hopkinton, Mass.). Pipette tips were changed after every 3 dilutions to minimize pipetting errors with high hydrophobic compounds. Untreated control samples with (column 1) and without (column 12) inoculum were included in each microtiter plate. Approximately 250 CFU per well of bacteria inoculum, in a volume of 100 μl in 2.8× Mueller-Hinton broth medium, was added to the rows […]. The same volume of broth medium without inoculum was added to column 12 in row A to H. The cultures were incubated at 37° C. for 48 hours in a humidified 5% CO2 atmosphere (incubator with open air valve and continuous ventilation). At the end of incubation, two days after inoculation, the bacterial growth was quantitated fluorometrically. Therefore Alamar Blue (10×) was added to all wells in a volume of 20 μl and plates were incubated for another 2 hours at […] The fluorescence was read in a computer-controlled fluorometer (Cytofluor, Biosearch) at an excitation wavelength of 530 nm and an emission wavelength of 590 nm (gain 30). The percentage growth inhibition achieved by the compounds was calculated according to standard methods and expressed as pIC50 values.

[1] = system: Mycobacterium tuberculosis (strain H37RV); assay: In-vitro method for testing compounds against M. tuberculosis (resazurin growth inhibition); assay type: cell-based; conditions: 7 days incubation; for IC50: Mycobacterium tuberculosis, 168 h, read-out: M. tuberculosis pIC50 (converted)
STA 29213 = assay: Microtitre plate assay, IC90 determination, STA 29213; assay type: cell-based, S. aureus; conditions: 90% inhibitory concentration for bacterial growth; strain STA 29213; 24 hours at 37° C.
Description: (§1) Stocks (0.5 ml/tube) were stored at -70° C. until use. Bacteria titrations were performed in microtiter plates to detect the TCID50, in which the TCID50 represents the dilution that gives rise to bacterial growth in 50% of inoculated cultures. In general, an inoculum level of approximately 100 TCID50 was used for susceptibility testing. […] Serial five-fold dilutions (45 μl in 180 μl) were made directly in the microtiter plates from column 2 to reach column 11. Untreated control samples with (column 1) and without (column 12) inoculum were included in each microtiter plate. Depending on the bacteria type, approximately 10 to 60 CFU per well of bacteria inoculum (100 TCID50), in a volume of 100 μl in 2.8× Mueller-Hinton broth medium, was added to the rows […]. The same volume of broth medium without inoculum was added to column 12 in row A to H. The cultures were incubated at 37° C. for 24 hours under a normal atmosphere (incubator with open air valve and continuous ventilation). At the end of incubation, one day after inoculation, the bacterial growth was quantitated fluorometrically. Therefore resazurin (0.6 mg/ml) was added in a volume of 20 μl to all wells 3 hours after inoculation, and the plates were re-incubated overnight. A change in colour from blue to pink indicated the growth of bacteria. The fluorescence was read in a computer-controlled fluorometer (Cytofluor Biosearch) at an excitation wavelength of 530 nm and an emission wavelength of 590 nm. The % growth inhibition achieved by the compounds was calculated according to standard methods. The IC90 (expressed in μg/ml) was defined as the 90% inhibitory concentration for bacterial growth.

ECO 25922 = assay: Microtitre plate assay, IC90 determination, ECO 25922; assay type: cell-based, E. coli; conditions: 90% inhibitory concentration for bacterial growth, strain ECO 25922, 24 hours at 37° C.; for IC90: Escherichia coli, read-out: IC90 (μg/ml) ECO 25922
Description: as §1

Row | SMILES | IC50 (M. Smegmatis ATCC607) | M. smegmatis pIC50 (M. Smegmatis ATCC607) | M. tuberculosis pIC50 [1] | further results
1 | COc1cccc(CN(CCN(C)C)C(c2ccccc2)c2cc3cc(Br)ccc3nc2OC)c1 (stereo not drawn) (as salt: oxalate) [Compound 20] | – | – | – | melting point: 142 °C
2 | Cc1ccc2nc(-c3ccccc3)c(C(c3ccccc3)N(C)CCN(C)C)cc2c1 (stereo not drawn) (as salt: oxalate) [Compound 37] | – | – | – | melting point: 142 °C
3 | CNC(=O)CN(C)C(c1ccccc1)c1cc2cc(Br)ccc2nc1OC (stereo not drawn) [Compound 3] | 89.1 µM | – | – | IC50 [1]: > 100 µM; melting point: 190 °C
4 | CCN(CC)C(=O)CN(C)C(c1ccccc1)c1cc2cc(Br)ccc2nc1OC (stereo not drawn) [Compound 11] | – | 5.1 | – | IC90 (μg/ml) STA 29213 (STA 29213): 11.8 µg/mL (≈ 25.1 µM)
5 | COc1nc2ccc(Br)cc2cc1C(c1ccccc1)N(CCN(C)C)c1ccccc1 (stereo not drawn) [Compound 18] | 2 µM | – | – | melting point: 120 °C
6 | Cc1ccc2nc(-c3ccccc3)c(C(c3ccccc3)N(CC(=O)N(C)C(C)C)Cc3ccccc3)cc2c1 (stereo not drawn) [Compound 41] | 0.1 µM | – | – | IC50 [1]: 6.31 µM; melting point: 126 °C; IC90 (ECO 25922): 13.3 µg/mL (≈ 25.2 µM)
7 | Cc1ccc2nc(-c3ccccc3)c(C(c3ccccc3)N(CC(=O)N(C)C)Cc3ccccc3)cc2c1 (stereo not drawn) [Compound 45] | 1 µM | – | – | IC50 [1]: 10 µM
8 | Cc1ccc2nc(-c3ccccc3)c(C(c3ccccc3)N(CC(=O)N(C)CC#N)Cc3ccccc3)cc2c1 (stereo not drawn) [Compound 46] | – | 5.8 | 5.0 | –
9 | CCN(CC)C(=O)CN(Cc1ccccc1)C(c1ccccc1)c1cc2cc(C)ccc2nc1-c1ccccc1 (stereo not drawn) [Compound 47] | 0.316 µM | – | – | IC50 [1]: 6.31 µM
10 | CCCN(CCC)C(=O)CN(Cc1ccccc1)C(c1ccccc1)c1cc2cc(C)ccc2nc1-c1ccccc1 (stereo not drawn) [Compound 49] | – | 5.2 | 4.6 | –
11 | CNC(=O)CN(Cc1ccccc1)C(c1ccccc1)c1cc2cc(Br)ccc2nc1-c1ccccc1 (stereo not drawn) [Compound 52] | – | 5.8 | – | IC90 (μg/ml) ECO 25922 (ECO 25922): 13.8 µg/mL (≈ 25.1 µM)
12 | CN(C)C(=O)CN(Cc1ccccc1)C(c1ccccc1)c1cc2cc(Br)ccc2nc1-c1ccccc1 (stereo not drawn) [Compound 53] | 0.316 µM | – | – | IC50 [1]: 20 µM; melting point: 110 °C; IC90 (ECO 25922): 14.2 µg/mL (≈ 25.2 µM)
13 | O=C(CN(Cc1ccccc1)C(c1ccccc1)c1cc2ccccc2nc1-c1ccccc1)N1CCCC1 (stereo not drawn) [Compound 55] | – | 6.0 | 4.3 | IC90 (μg/ml) ECO 25922 (ECO 25922): 12.9 µg/mL (≈ 25.2 µM)
14 | COc1nc2ccc(C)cc2cc1C(c1ccccc1)N(CC(=O)N1CCOCC1)Cc1ccccc1 (stereo not drawn) [Compound 59] | 1.58 µM | – | – | melting point: 126 °C; IC90 (ECO 25922): 12.4 µg/mL (≈ 25 µM)
15 | Cc1ccc2nc(-c3ccccc3)c(C(c3ccccc3)N(CC(=O)N3CCCC3)Cc3ccccc3)cc2c1 (stereo not drawn) [Compound 64] | – | 6.5 | 5.0 | –
16 | Cc1ccc2nc(-c3ccccc3)c(C(c3ccccc3)N(CC(=O)N3CCSC3)Cc3ccccc3)cc2c1 (stereo not drawn) [Compound 65] | – | 6.5 | 5.0 | IC90 (μg/ml) ECO 25922 (ECO 25922): 13.7 µg/mL (≈ 25.2 µM)
17 | Cc1ccc2nc(-c3ccccc3)c(C(c3ccccc3)N(CC(=O)N3CCCCC3)Cc3ccccc3)cc2c1 (stereo not drawn) [Compound 66] | 2.51 µM | – | – | IC50 [1]: 39.8 µM; melting point: 78 °C; IC90 (ECO 25922): 13.6 µg/mL (≈ 25.2 µM)
18 | Cc1ccc2nc(-c3ccccc3)c(C(c3ccccc3)N(CC(=O)N3CCC(C)CC3)Cc3ccccc3)cc2c1 (stereo not drawn) [Compound 67] | – | 6.0 | 5.7 | –
19 | Cc1ccc2nc(-c3ccccc3)c(C(c3ccccc3)N(CC(=O)N3CCOCC3)Cc3ccccc3)cc2c1 (stereo not drawn) [Compound 68] | – | 6.5 | 5.1 | –
20 | Cc1ccc2nc(-c3ccccc3)c(C(c3ccccc3)N(CC(=O)N3CC(C)OC(C)C3)Cc3ccccc3)cc2c1 (stereo not drawn) [Compound 71] | – | 5.7 | 5.1 | –
21 | Cc1ccc2nc(-c3ccccc3)c(C(c3ccccc3)N(CC(=O)N3CCc4ccccc4C3)Cc3ccccc3)cc2c1 (stereo not drawn) [Compound 74] | – | 5.2 | 5.0 | IC90 (μg/ml) ECO 25922 (ECO 25922): 14.8 µg/mL (≈ 25.2 µM)
22 | Cc1ccc2nc(-c3ccccc3)c(C(c3ccccc3)N(CC(=O)N3CCN(c4ccccn4)CC3)Cc3ccccc3)cc2c1 (stereo not drawn) [Compound 75] | – | – | 5.4 | –

Row | SMILES | IC50 (M. Smegmatis ATCC607) | M. smegmatis pIC50 (M. Smegmatis ATCC607) | M. tuberculosis pIC50 [1] | further results
23 | Cc1ccc2nc(-c3ccccc3)c(C(c3ccccc3)N(CC(=O)N3CCN(c4ncccn4)CC3)Cc3ccccc3)cc2c1 (stereo not drawn) [Compound 76] | – | – | 5.0 | –
24 | Cc1ccc2nc(-c3ccccc3)c(C(c3ccccc3)N(CC(=O)N3CCN(Cc4ccccc4)CC3)Cc3ccccc3)cc2c1 (stereo not drawn) [Compound 78] | – | – | 6.05 | –
25 | Cc1ccc2nc(-c3ccccc3)c(C(c3ccccc3)N(CC(=O)N3CCC(Cc4ccccc4)CC3)Cc3ccccc3)cc2c1 (stereo not drawn) [Compound 79] | – | – | 5.7 | –
26 | COc1nc2ccc(Br)cc2cc1C(c1ccccc1)N(C)CC(=O)N1CCSCC1 (stereo not drawn) [Compound 88] | – | 4.9 | 4.05 | –
27 | COc1nc2ccc(Br)cc2c(Cl)c1C(c1ccccc1)N(C)CC(=O)N1CCSCC1 (stereo not drawn) [Compound 97] | – | 4.4 | 4.2 | –
28 | COc1nc2ccc(Br)cc2cc1C(c1ccccc1)N(CC(=O)N1CCOCC1)Cc1ccoc1 (stereo not drawn) [Compound 102] | – | 5.8 | – | IC90 (μg/ml) ECO 25922 (ECO 25922): 13.8 µg/mL (≈ 25.1 µM)
29 | COc1nc2ccc(Br)cc2cc1C(c1ccccc1)N(CC(=O)N1CCCC1)Cc1ccccc1 (stereo not drawn) [Compound 103] | – | 4.5 | – | IC90 (μg/ml) ECO 25922 (ECO 25922): 13.7 µg/mL (≈ 25.2 µM)
30 | COc1nc2ccc(Br)cc2cc1C(c1ccccc1)N(CC(=O)N1CCOCC1)Cc1ccccc1 (stereo not drawn) [Compound 105] | – | 6.0 | – | IC90 (μg/ml) ECO 25922 (ECO 25922): 14.1 µg/mL (≈ 25.2 µM)
31 | COc1nc2ccc(Br)cc2cc1C(c1ccccc1)N(CC(=O)N1CCSCC1)Cc1ccccc1 (stereo not drawn) [Compound 106] | – | 6.4 | <4 | IC90 (μg/ml) ECO 25922 (ECO 25922): 14.5 µg/mL (≈ 25.1 µM)
32 | COc1nc2ccc(Br)cc2cc1C(c1ccccc1)N(CC(=O)N1CCOCC1)Cc1ccccc1Cl (stereo not drawn) [Compound 108] | – | 5.9 | – | IC90 (μg/ml) ECO 25922 (ECO 25922): 14.9 µg/mL (≈ 25 µM)
33 | COc1nc2ccc(Br)cc2cc1C(c1ccccc1)N(CC(=O)N1CCOCC1)Cc1cccnc1 (stereo not drawn) [Compound 111] | – | 5.8 | – | IC90 (μg/ml) ECO 25922 (ECO 25922): 14.1 µg/mL (≈ 25.1 µM)
34 | COc1nc2ccc(Br)cc2cc1C(c1ccccc1)N(CCC(=O)N1CCOCC1)Cc1ccccc1 (stereo not drawn) [Compound 120] | – | 5.6 | – | IC90 (μg/ml) ECO 25922 (ECO 25922): 14.4 µg/mL (≈ 25.1 µM)
35 | COc1nc2ccc(C#N)cc2cc1C(c1ccccc1)N(CC(=O)N1CCCC1)Cc1ccccc1 (stereo not drawn) [Compound 122] | 63.1 µM | – | – | melting point: 161 °C; IC90 (ECO 25922): 12.3 µg/mL (≈ 25.1 µM)
36 | COc1nc2ccc(C#N)cc2cc1C(c1ccccc1)N(CC(=O)N1CCOCC1)Cc1ccccc1 (stereo not drawn) [Compound 124] | – | 5.05 | – | IC90 (μg/ml) ECO 25922 (ECO 25922): 12.7 µg/mL (≈ 25.1 µM)
37 | CCOC(=O)CN(C)C(c1ccccc1)c1cc2cc(Br)ccc2nc1OC (stereo not drawn) [Compound 131] | 1 µM | – | – | IC50 [1]: 31.6 µM
38 | CCOC(=O)CN(C(C)C)C(c1ccccc1)c1cc2cc(Br)ccc2nc1OC (stereo not drawn) [Compound 133] | – | 5.7 | 4.4 | –
39 | CCOC(=O)CN(Cc1cccc2ncccc12)C(c1ccccc1)c1cc2cc(Br)ccc2nc1OC (stereo not drawn) [Compound 145] | 31.6 µM | – | – | melting point: 96 °C
40 | CCOC(=O)CN(Cc1ccccc1)C(c1ccccc1)c1cc2cc(Br)ccc2nc1-c1ccccc1 (stereo not drawn) [Compound 146] | 0.501 µM | – | – | IC50 [1]: 50.1 µM; IC90 (ECO 25922): 14.2 µg/mL (≈ 25.1 µM)
41 | CCOC(=O)CN(Cc1ccccc1)C(c1ccccc1)c1cc2cc(C)ccc2nc1-c1ccccc1 (stereo not drawn) [Compound 150] | 0.398 µM | – | – | IC50 [1]: 39.8 µM
42 | CCOC(=O)CN(Cc1ccccc1)C(c1ccccc1)c1cc2cc(C#N)ccc2nc1OC (stereo not drawn) [Compound 151] | – | – | – | melting point: 148 °C
43 | CCOC(=O)CN(Cc1ccccc1)C(c1ccccc1)c1cc2cc(-c3cccnc3)ccc2nc1-c1ccccc1 (stereo not drawn) [Compound 152] | 2.51 µM | – | – | IC90 (ECO 25922): 14.2 µg/mL (≈ 25.2 µM)
